Results published in patent US20260224496A1, “HIGHLY POROUS GAS-BLOWN HYDROGELS FOR DIRECT CELL ENCAPSULATION WITH HIGH CELL VIABILITY” (Syracuse University, priority 2023, published 2026).

Key:
[1] = test system: 3T3 mouse fibroblasts; assay: IC50 values of foaming components, resazurin assay (Alamar Blue); format: cell-based; settings: 20-minute exposure
Method: Cells were cultured in DMEM with 10% fetal bovine serum (FBS) and 1% penicillin-streptomycin (pen-strep) at 37° C. with 5% CO2. Cells were trypsinized and seeded at a density of 5,000 cells per well in a 96-well plate. […] After a 20-minute exposure, solutions were removed, and cell viability was measured compared to an untreated control using a resazurin assay (Alamar Blue) read by a plate reader. Cell viability was calculated as: […]
The blank was a well with media only and no cells.

[2] = in vitro
Method: (§1) Using IC50 values as a concentration ceiling, the cytocompatibility of citric acid, NaHCO3, and Irgacure 2959 was measured with adipose-derived MSCs at concentrations of 0.25, 1, and 0.2% (w/v) in DMEM, respectively. MSCs were seeded in 24 well plates at 2,500 cells per well. […] After incubation, cells were treated with a resazurin assay for 2 hours for cytocompatibility measurements or with Live/Dead assay stains and imaging for morphology analysis.

[3] = test system: adipose-derived MSCs; assay: in vitro
Method: as §1

O=C(O)CC(O)(CC(=O)O)C(=O)O [Citric acid, citric acid]
IC50 [1]: 0.23 wt % | viability at 1 h, 0.25 % (w/v) [2]: 51% | viability at 24 h, 0.25 % (w/v) [2]: 21%

CC(C)(O)C(=O)c1ccc(OCCO)cc1 [Irgacure 2959]
MSC viability after 24-hour recovery [3]: 99% | MSC viability after 1 hour of exposure [3]: 99%

O=C([O-])O.[Na+] [NaHCO3, sodium bicarbonate]
MSC viability after 24-hour recovery ([3]; citric acid 0.25%, Irgacure 2959 0.2%, NaHCO3 1% (w/v) in DMEM, 24-hour recovery): 95% | MSC viability after 1 hour of exposure ([3]; citric acid 0.25%, Irgacure 2959 0.2%, NaHCO3 1% (w/v) in DMEM, 1 hour exposure): 98%
